Patent publication US9895349B2, “N-phenyl-carboxamide derivatives and the use thereof as medicaments for the treatment of hepatitis B” (priority 2013, dated 2018)

Tests used:
HBV [1] = assay: Anti-HBV activity, HepG2.2.15 stable transfected cell line, HBV DNA from secreted virions by realtime PCR; assay type: cell-based, Hepatitis B virus (HBV); details: HepG2.2.15 cells, 6 days of treatment
HBV [2] = assay: Anti-HBV activity, HepG2.117 inducibly HBV producing cell line (Tet-off), intracellular HBV DNA by realtime PCR; assay type: cell-based, Hepatitis B virus (HBV); details: HepG2.117 cells, 3 days of treatment
[3] = Cytotoxicity in HepG2 cells, Resazurin assay; details: human
[4] = Hepatitis B virus, HepG2.2.15, 144 h
[5] = Hepatitis B virus, HepG2.117, 72 h

Row | SMILES | EC50 (HBV [1]; [4]) [nM] | EC50 (HBV [2]; [5]) [nM] | CC50 at 4 days [3] [nM] | EC50 (HBV [2]) [nM] | EC50 (HBV [1]) [nM]
1 | Cc1cc(NC(=O)[C@@H]2CCN(S(=O)(=O)CC(C)C)C2)ccc1F [Compound 3, (3R)—N-(4-fluoro-3-methyl-phenyl)-1-isobutylsulfonyl-pyrrolidine-3-carboxamide] | > 25000 | 1490 | > 25000 |  | 
2 | Cc1cc(NC(=O)[C@H]2CCN(S(=O)(=O)N[C@H](C)CO)C2)ccc1F [Compound 39, (3S)—N-(4-fluoro-3-methyl-phenyl)-1-[[(1R)-2-hydroxy-1-methyl-ethyl]sulfamoyl]pyrrolidine-3-carboxamide] |  | 150 | > 25000 |  | 
3 | Cc1cc(NC(=O)[C@H]2CCN(S(=O)(=O)C3CCOCC3)C2)ccc1F [Compound 9, (3S)—N-(4-fluoro-3-methyl-phenyl)-1-tetrahydropyran-4-ylsulfonyl-pyrrolidine-3-carboxamide] | 1400 | 950 | > 25000 |  | 
4 | Cc1cc(NC(=O)[C@H]2CCN(S(=O)(=O)NC3CC(=O)N(C)C3)C2)ccc1F (stereo partly drawn) [Compound 50, (3S)—N-(4-fluoro-3-methyl-phenyl)-1-[(1-methyl-5-oxo-pyrrolidin-3-yl)sulfamoyl]pyrrolidine-3-carboxamide] | 350 | 460 | > 25000 |  | 
5 | Cc1cc(NC(=O)[C@H]2CCN(C(=O)OCC(C)C)C2)ccc1F [Compound 26, isobutyl (3S)-3-[(4-fluoro-3-methyl-phenyl)carbamoyl]pyrrolidine-1-carboxylate] | 4400 | 410 | > 25000 |  | 
6 | Cc1cc(NC(=O)[C@H]2CCN(S(=O)(=O)C3CCCC3)C2)ccc1F [Compound 10, (3S)-1-cyclopentylsulfonyl-N-(4-fluoro-3-methyl-phenyl)pyrrolidine-3-carboxamide] | 4300 | 760 | 22900 |  | 
7 | CCC1CC1S(=O)(=O)N1CC[C@H](C(=O)Nc2ccc(F)c(C)c2)C1 (stereo partly drawn) [Compound 24, (3S)-1-(2-ethylcyclopropyl)sulfonyl-N-(4-fluoro-3-methyl-phenyl)pyrrolidine-3-carboxamide] | 500 | 330 | > 25000 |  | 
8 | Cc1cc(NC(=O)[C@H]2CCN(S(=O)(=O)N[C@H]3CCOC3)C2)ccc1F [Compound 33, (3S)—N-(4-fluoro-3-methyl-phenyl)-1-[[(3S)-tetrahydrofuran-3-yl]sulfamoyl]pyrrolidine-3-carboxamide] | 150 | 75 | > 25000 |  | 
9 | Cc1cc(NC(=O)[C@H]2CCN(S(=O)(=O)NC3(CCO)COC3)C2)ccc1F [Compound 47, (3S)—N-(4-fluoro-3-methyl-phenyl)-1-[[3-(2-hydroxyethyl)oxetan-3-yl]sulfamoyl]pyrrolidine-3-carboxamide] | 65 | 91 | > 25000 |  | 
10 | Cc1cc(NC(=O)[C@H]2CCN(S(=O)(=O)CC(C)C)C2)ccc1F [Compound 2, (3S)—N-(4-fluoro-3-methyl-phenyl)-1-isobutylsulfonyl-pyrrolidine-3-carboxamide] | 1320 | 310 | > 25000 |  | 
11 | CC[C@@H](C)NS(=O)(=O)N1CC[C@H](C(=O)Nc2ccc(F)c(F)c2)C1 [Compound 45, (3S)—N-(3,4-difluorophenyl)-1-[[(1R)-1-methylpropyl]sulfamoyl]pyrrolidine-3-carboxamide] | 3250 | 540 | > 25000 |  | 
12 | Cc1cc(NC(=O)C2CN(S(=O)(=O)CC(C)C)c3ccccc32)ccc1F (centres unmarked) [Compound 28, N-(4-fluoro-3-methyl-phenyl)-1-isobutylsulfonyl-indoline-3-carboxamide] | 2000 | 3900 | > 25000 |  | 
13 | Cc1cc(NC(=O)[C@@H]2CN(S(=O)(=O)NC(C)C)C[C@H]2C)ccc1F (relative stereo) [Compound 41, trans-N-(4-fluoro-3-methyl-phenyl)-1-(isopropylsulfamoyl)-4-methyl-pyrrolidine-3-carboxamide] | 530 | 420 | > 25000 |  | 
14 | Cc1cc(NC(=O)[C@H]2CCN(S(=O)(=O)N3CC4(COC4)C3)C2)ccc1F [Compound 49, (3S)—N-(4-fluoro-3-methyl-phenyl)-1-(6-oxa-2-azaspiro[3.3]heptan-2-ylsulfonyl)pyrrolidine-3-carboxamide] | 1490 | 950 | > 25000 |  | 
15 | Cc1cc(NC(=O)[C@H]2CCN(S(=O)(=O)N[C@@H]3c4ccccc4C[C@H]3O)C2)ccc1F [Compound 37, (3S)—N-(4-fluoro-3-methyl-phenyl)-1-[[(1R,2R)-2-hydroxyindan-1-yl]sulfamoyl]pyrrolidine-3-carboxamide] | 270 | 530 | > 25000 |  | 
16 | Cc1cc(NC(=O)C2(F)CCN(S(=O)(=O)N[C@H]3CCOC3)C2)ccc1F (single isomer, unassigned) [Compound 42a] | > 5000 |  | > 25000 | > 5000 | 

Row | SMILES | EC50 (HBV [1]; [4]) [nM] | EC50 (HBV [2]; [5]) [nM] | CC50 at 4 days [3] [nM] | EC50 (HBV [2]) [nM] | EC50 (HBV [1]) [nM]
17 | Cc1cc(NC(=O)[C@H]2CCN(S(=O)(=O)NC(C)C)C2)ccc1F [Compound 32, (3S)—N-(4-fluoro-3-methyl-phenyl)-1-(isopropylsulfamoyl)pyrrolidine-3-carboxamide] | 180 | 120 | > 25000 |  | 
18 | Cc1cc(NC(=O)[C@H]2CCN(S(=O)(=O)NC(C)CC#N)C2)ccc1F (stereo partly drawn) [Compound 40, (3S)-1-[(2-cyano-1-methyl-ethyl)sulfamoyl]-N-(4-fluoro-3-methyl-phenyl)pyrrolidine-3-carboxamide] | 290 | 120 | > 25000 |  | 
19 | O=C(Nc1ccc(F)c(F)c1)[C@H]1CCN(S(=O)(=O)N[C@H]2CCOC2)C1 [Compound 46, (3S)—N-(3,4-difluorophenyl)-1-[[(3S)-tetrahydrofuran-3-yl]sulfamoyl]pyrrolidine-3-carboxamide] | 600 | 240 | > 25000 |  | 
20 | CC1(NS(=O)(=O)N2CC[C@H](C(=O)Nc3ccc(F)c(F)c3)C2)COC1 [Compound 44, (3S)—N-(3,4-difluorophenyl)-1-[(3-methyloxetan-3-yl)sulfamoyl]pyrrolidine-3-carboxamide] | 610 | 420 | > 25000 |  | 
21 | COC(=O)NC[C@@H](C)NS(=O)(=O)N1CC[C@H](C(=O)Nc2ccc(F)c(C)c2)C1 [Compound 51, methyl N-[(2R)-2-[[(3S)-3-[(4-fluoro-3-methyl-phenyl)carbamoyl]pyrrolidin-1-yl]sulfonylamino]propyl]carbamate] | 150 | 57 | > 25000 |  | 
22 | Cc1cc(NC(=O)[C@H]2CCN(S(=O)(=O)NC(C)CNC(=O)OC(C)(C)C)C2)ccc1F (stereo partly drawn) [Compound 38, tert-butyl N-[2-[[(3S)-3-[(4-fluoro-3-methyl-phenyl)carbamoyl]pyrrolidin-1-yl]sulfonylamino]propyl]carbamate] | 3650 | 2070 | > 25000 |  | 
23 | Cc1cc(NC(=O)C23CC2CN(S(=O)(=O)N[C@H]2CCOC2)C3)ccc1F (stereo partly drawn) [Compound 43, N-(4-fluoro-3-methyl-phenyl)-3-[[(3S)-tetrahydrofuran-3-yl]sulfamoyl]-3-azabicyclo[3.1.0]hexane-1-carboxamide] | 580 | 850 | > 25000 |  | 
24 | Cc1cc(NC(=O)C2CN(S(=O)(=O)NC(C)C)C3CC23)ccc1F (single isomer, unassigned) [Compound 36a, N-(4-fluoro-3-methyl-phenyl)-2-(isopropylsulfamoyl)-2-azabicyclo[3.1.0]hexane-4-carboxamide] |  |  | > 25000 | 2650 | 2390
25 | CCC(C)S(=O)(=O)N1CC[C@H](C(=O)Nc2ccc(F)c(C)c2)C1 (stereo partly drawn) [Compound 25, (3S)—N-(4-fluoro-3-methyl-phenyl)-1-sec-butylsulfonyl-pyrrolidine-3-carboxamide] | 5500 | 430 | > 25000 |  | 
26 | Cc1cc(NC(=O)C2(C)CCN(S(=O)(=O)CC(C)C)C2)ccc1F (racemic) [Compound 29, N-(4-fluoro-3-methyl-phenyl)-1-isobutylsulfonyl-3-methyl-pyrrolidine-3-carboxamide] | 13700 |  | > 25000 | 18900 | 
27 | CCCS(=O)(=O)N1CC[C@H](C(=O)Nc2ccc(F)c(C)c2)C1 [Compound 6, (3S)—N-(4-fluoro-3-methyl-phenyl)-1-propylsulfonyl-pyrrolidine-3-carboxamide] | 1900 | 620 | > 25000 |  | 
28 | Cc1cc(NC(=O)[C@@]23C[C@@H]2CN(S(=O)(=O)CC(C)C)C3)ccc1F [Compound 27, (1S,5S)—N-(4-fluoro-3-methyl-phenyl)-3-isobutylsulfonyl-3-azabicyclo[3.1.0]hexane-1-carboxamide] | 2800 | 2000 | > 25000 |  | 
29 | Cc1cc(NC(=O)[C@H]2CCN(S(=O)(=O)NC3(C)COC3)C2)ccc1F [Compound 34, (3S)—N-(4-fluoro-3-methyl-phenyl)-1-[(3-methyloxetan-3-yl)sulfamoyl]pyrrolidine-3-carboxamide] | 110 | 110 | > 25000 |  | 
30 | Cc1cc(NC(=O)C2CCN(S(=O)(=O)CC(C)C)C2)ccc1F (centres unmarked) [Compound 1, N-(4-fluoro-3-methyl-phenyl)-1-isobutylsulfonyl-pyrrolidine-3-carboxamide] | 940 | 720 | > 25000 |  | 
31 | Cc1cc(NC(=O)[C@H]2CCN(S(=O)(=O)NCC(C)C)C2)ccc1F [Compound 31, (3S)—N-(4-fluoro-3-methyl-phenyl)-1-(isobutylsulfamoyl)pyrrolidine-3-carboxamide] | 450 | 470 | > 25000 |  | 
